What was measured:
[1] = Lipophilicity, LogD of compound at pH 10.5 by chromatography; assay type: physicochemical; settings: buffer
in vitro [2] = settings: human, liver microsomes
[3] = Lipophilicity, LogD of compound at pH 2.6 by chromatography; assay type: physicochemical; settings: buffer
[4] = Lipophilicity, LogD of compound at pH 7.4 by chromatography; assay type: physicochemical; settings: buffer
in vitro [5] = settings: human, liver microsomes; remark: listed apart in the source
[6] = human, microsomes, 0.75 h, 3 µM
[7] = Drug uptake in brain of male BALB/c mouse at 15 mg/kg, ip measured after 48 hrs; assay type: ADME, organism-based; settings: in vivo
[8] = Cmax in plasma of male Balb/c mouse at 15 mg/kg, ip measured up to 120 mins; assay type: ADME, organism-based
[9] = Drug uptake in plasma of male BALB/c mouse at 15 mg/kg, ip measured after 48 hrs; assay type: ADME, organism-based; settings: in vivo
[10] = Toxicity in male BALB/c mouse administered intraperitoneally measured for 48 hrs; settings: in vivo, route ip
[11] = AUC (infinity) in brain of male Balb/c mouse at 15 mg/kg, ip measured up to 120 mins; assay type: ADME, organism-based
in vivo = settings: male, Balb/c, mouse, brain/plasma, ip, 15 mg/kg
[12] = AUC (0 to 120 mins) in plasma of male Balb/c mouse at 15 mg/kg, ip measured up to 120 mins; assay type: ADME, organism-based
[13] = Tmax in plasma of male Balb/c mouse at 15 mg/kg, ip measured up to 120 mins; assay type: ADME, organism-based
[14] = AUC (0 to 120 mins) in brain of male Balb/c mouse at 15 mg/kg, ip measured up to 120 mins; assay type: ADME, organism-based
[15] = AUC (infinity) in plasma of male Balb/c mouse at 15 mg/kg, ip measured up to 120 mins; assay type: ADME, organism-based
[16] = Tmax in brain of male Balb/c mouse at 15 mg/kg, ip measured up to 120 mins; assay type: ADME, organism-based
[17] = Cmax in brain of male Balb/c mouse at 15 mg/kg, ip measured up to 120 mins; assay type: ADME, organism-based

Nc1c2c(nc3ccc(-c4cncnc4)cc13)CCCC2
chromatographic logD [1]: 2.59 | microsomal CLint at 0.75 h, 3 µM (in vitro [2]): 14.8 µL/min/mg | chromatographic logD [3]: 0.99 | chromatographic logD [4]: 2.73 | half-life at 0.75 h, 3 µM (in vitro [5]): 93.7 min | CHI: 14.7 | Drug metabolism [6]: 200.7 10^6No_unit

Nc1c2c(nc3ccc(-c4ccsc4)cc13)CCCC2
chromatographic logD [1]: 4.48 | chromatographic logD [3]: 1.78 | chromatographic logD [4]: 3.8 | CHI: 29.9

CC(C)COc1cccc(-c2ccc3nc4c(c(N)c3c2)CCCC4)c1
chromatographic logD [1]: 5.79 | chromatographic logD [3]: 2.87 | chromatographic logD [4]: 5.58 | CHI: 38.8

Nc1c2c(nc3ccc(-c4ccc(Cl)nc4)cc13)CCCC2
chromatographic logD [1]: 4.15 | chromatographic logD [3]: 1.6 | chromatographic logD [4]: 3.65 | CHI: 26

CN(C)c1cccc(-c2ccc3nc4c(c(N)c3c2)CCCC4)c1
chromatographic logD [1]: 4.86 | chromatographic logD [3]: 1.4 | chromatographic logD [4]: 4.5 | CHI: 31.6

COc1ncc(-c2ccc3nc4c(c(N)c3c2)CCCC4)c(OC)n1
chromatographic logD [1]: 1.4 | chromatographic logD [3]: 0.65 | chromatographic logD [4]: 1.2 | CHI: 12.2

Nc1c2c(nc3ccc(-c4ccncc4)cc13)CCCC2
chromatographic logD [1]: 3.05 | microsomal CLint at 0.75 h, 3 µM (in vitro [2]): 46.2 µL/min/mg | chromatographic logD [3]: 0.47 | chromatographic logD [4]: 3.52 | half-life at 0.75 h, 3 µM (in vitro [5]): 30 min | CHI: 20.2 | Drug metabolism [6]: 172.8 10^6No_unit

Nc1c2c(nc3ccc(Oc4ccccc4)cc13)CCCC2
chromatographic logD [1]: 4.49 | microsomal CLint at 0.75 h, 3 µM (in vitro [2]): 4.2 µL/min/mg | chromatographic logD [3]: 1.83 | chromatographic logD [4]: 3.82 | half-life at 0.75 h, 3 µM (in vitro [5]): 330 min | CHI: 27.6 | Drug metabolism [6]: 473.1 10^6No_unit

Nc1c2c(nc3ccc(-c4ccc(F)nc4)cc13)CCCC2
chromatographic logD [1]: 3.81 | chromatographic logD [3]: 1.44 | chromatographic logD [4]: 3.24 | CHI: 23

Nc1c2c(nc3ccc(-c4ccc(Cl)s4)cc13)CCCC2
chromatographic logD [1]: 5.42 | chromatographic logD [3]: 2.28 | chromatographic logD [4]: 4.86 | CHI: 37.9

COc1cc(-c2ccc3nc4c(c(N)c3c2)CCCC4)ccn1
chromatographic logD [1]: 3.99 | chromatographic logD [3]: 1.63 | chromatographic logD [4]: 3.69 | CHI: 25.3

COc1ncc(-c2ccc3nc4c(c(N)c3c2)CCCC4)cn1
chromatographic logD [1]: 3.2 | chromatographic logD [3]: 1.26 | chromatographic logD [4]: 2.94 | CHI: 19.1

Nc1c2c(nc3ccc(-c4cccs4)cc13)CCCC2
chromatographic logD [1]: 4.54 | chromatographic logD [3]: 1.77 | chromatographic logD [4]: 3.85 | CHI: 29.6

Cc1ccc(-c2ccc3nc4c(c(N)c3c2)CCCC4)o1
chromatographic logD [1]: 4.58 | microsomal CLint at 0.75 h, 3 µM (in vitro [2]): 239 µL/min/mg | chromatographic logD [3]: 1.94 | chromatographic logD [4]: 4.06 | half-life at 0.75 h, 3 µM (in vitro [5]): 5.8 min | CHI: 29.5 | Drug metabolism [6]: 215.5 10^6No_unit

Cc1csc(-c2ccc3nc4c(c(N)c3c2)CCCC4)c1
Drug uptake [7]: Active | chromatographic logD [1]: 4.96 | microsomal CLint at 0.75 h, 3 µM (in vitro [2]): 224 µL/min/mg | chromatographic logD [3]: 2.12 | Cmax [8]: 945 nM | Drug uptake [9]: Active | NOAEL at 48 h [10]: 15 mg/kg | AUC(0-inf) [11]: 1.96 µM·h | Kp at 2 h (in vivo): 2.36 | AUC(0-t) at 2 h [12]: 0.775 µM·h | chromatographic logD [4]: 4.41 | Tmax [13]: 15 min | AUC(0-t) at 2 h [14]: 1.83 µM·h | half-life at 0.75 h, 3 µM (in vitro [5]): 6.2 min | AUC(0-inf) [15]: 1.08 µM·h | Tmax [16]: 26.2 min | Cmax [17]: 1470 nM | CHI: 33 | Drug metabolism [6]: 207 10^6No_unit

COc1ccc2nc3c(c(N)c2c1)CCCC3
microsomal CLint at 0.75 h, 3 µM (in vitro [2]): 42.2 µL/min/mg | half-life at 0.75 h, 3 µM (in vitro [5]): 32.8 min | Drug metabolism [6]: 13.2 10^6No_unit

Nc1c2c(nc3ccc(-c4ccoc4)cc13)CCCC2
chromatographic logD [1]: 4.08 | chromatographic logD [3]: 1.59 | chromatographic logD [4]: 3.43 | CHI: 26.2
